# Assay results reported in patent US20190212344A1, “BIOMARKERS FOR USE IN DETERMINING RESPONSE TO TREATMENT OF NEURODEGENERATION DISEASE” (The Board of Trustees of the Leland Stanford Junior …, priority 2016, published 2019).
# Residues, ends and D or L forms follow the SMILES beside them.
# System: R6/2 mice
# Experiment: Survival of R6/2 and WT mice during P110 treatment
# Assay type: in vivo, mouse
# Details: 10 P110-treated WT mice, intermittent treatment over 8 weeks
# Experimental: All the experiments were in accordance with protocols approved by the Institutional Animal Care and Use Committee of Stanford University and were performed based on the National Institutes of Health Guide for the Care and Use of Laboratory Animals. Hemizygous R6/2 HD mice and their wild-type littermates (WT) were purchased from Jackson Laboratories and shipped to us at 5 weeks of age. The animals used in the P110 treatment study were implanted with a 28-day osmotic pump (Alzet, Cupertino Calif.) containing TAT47-57 carrier control peptide or P110-TAT47-57 (P110 peptide), which delivered to the mice at a rate of 3 mg/Kg/day, as described before. The first pump was implanted at 5 weeks of age and replaced once, after 4 weeks. For the intermittent treatment study, TAT or P110 were delivered as above, using a 1-week pump. After 3 weeks with no treatment, a new pump was implanted for another week of treatment, and mice were sacrificed three weeks later, at the age of 13 weeks.
# The overall survival during the study period was recorded and the remaining mice were sacrificed when they reached 13 weeks. […]
# The results are presented as mean±SE. Statistical analysis was assessed by unpaired Student's t test and 1-way ANOVA using GraphPad Prism (GraphPad Software, Inc, La Jolla, Calif.). […]
compound,measurement,value
CC(C)C[C@H](NC(=O)[C@H](CC(=O)O)NC(=O)CNC(=O)CNC(=O)[C@H](CCCNC(=N)N)NC(=O)[C@H](CCCNC(=N)N)NC(=O)[C@H](CCCNC(=N)N)NC(=O)[C@H](CCC(N)=O)NC(=O)[C@H](CCCNC(=N)N)NC(=O)[C@H](CCCNC(=N)N)NC(=O)[C@H](CCCCN)NC(=O)[C@H](CCCCN)NC(=O)[C@H](CCCNC(=N)N)NC(=O)CNC(=O)[C@@H](N)Cc1ccc(O)cc1)C(=O)N[C@@H](CC(C)C)C(=O)N1CCC[C@H]1C(=O)N[C@@H](CCCNC(=N)N)C(=O)NCC(=O)N[C@@H](CO)C(=O)O [P110] (H-YGRKKRRQRRRGGDLLPRGS-OH),death in WT mice,no death
